The record followed here is patent US20100056524A1, “Compound” (priority 2008, published 2010).

The target in this assay is T1, TBK1 (Homo sapiens, UniProt Q9UHD2).
T1 construct: All protein kinases were of human origin and encoded full length proteins, unless indicated otherwise; His6; made in house; host or cells: insect Sf21 cells
T1 sequence (Q9UHD2 1-729): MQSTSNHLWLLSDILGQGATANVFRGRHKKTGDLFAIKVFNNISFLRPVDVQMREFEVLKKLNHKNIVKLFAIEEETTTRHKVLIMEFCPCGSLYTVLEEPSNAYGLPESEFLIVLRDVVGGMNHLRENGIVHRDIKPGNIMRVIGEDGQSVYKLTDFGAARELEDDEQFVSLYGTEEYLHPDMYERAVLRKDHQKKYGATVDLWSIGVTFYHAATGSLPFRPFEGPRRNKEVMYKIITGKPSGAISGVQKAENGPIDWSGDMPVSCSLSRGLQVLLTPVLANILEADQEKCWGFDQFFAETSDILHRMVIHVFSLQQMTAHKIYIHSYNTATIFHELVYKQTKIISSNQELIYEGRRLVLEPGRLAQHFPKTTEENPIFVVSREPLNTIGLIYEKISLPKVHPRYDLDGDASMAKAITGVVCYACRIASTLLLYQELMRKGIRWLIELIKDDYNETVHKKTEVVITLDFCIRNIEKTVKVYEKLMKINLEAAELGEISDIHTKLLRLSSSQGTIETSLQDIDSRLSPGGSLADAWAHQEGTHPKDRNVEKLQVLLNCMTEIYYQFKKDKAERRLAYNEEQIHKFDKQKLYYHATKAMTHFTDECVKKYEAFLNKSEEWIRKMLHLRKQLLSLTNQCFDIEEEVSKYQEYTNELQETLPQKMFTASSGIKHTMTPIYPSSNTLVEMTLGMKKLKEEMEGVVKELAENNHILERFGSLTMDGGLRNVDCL
Description: TBK1 protein kinase assay ([γ-33P]ATP, P81 filterplates). The format is biochemical. Particulars: 50 μM ATP; read-out: Potency (TBK1 IC50 potency score). The procedure, abridged:
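Human TBK1 assayed for 30 min with peptide substrate (300 μM), 50 μM [γ-33P]ATP and 10 mM magnesium acetate in 50 mM Tris/HCl pH 7.5, 0.1 mM EGTA, 0.1% 2-mercaptoethanol. Stopped with orthophosphoric acid and counted on P81 filters. IC50 from 10 compound concentrations.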

pIC50: −log10 of the molar value. Structures can show the parent of a compound that is named as a salt. Some results are limits rather than exact numbers.

A word on the pIC50: it is −log10 of the IC50, conventionally taken in molar units. For `O=C(NCCCNc1nc(Nc2cccc(F)c2)ncc1C1CC1)c1cncs1` [Example 11, Thiazole-5-carboxylic acid {3-[5-cyclopropyl-2-(3-fluoro-phenylamino)-pyrimidin-4-ylamino]-propyl}-amide], the pIC50 was greater than 7.00.

On to `O=C(NCCCNc1nc(Nc2cccc(F)c2)ncc1C1CC1)C1CCCC1` [Example 22, Cyclopentanecarboxylic acid {3-[5-cyclopropyl-2-(3-fluoro-phenylamino)pyrimidin-4-ylamino]-propyl}-amide], for which the pIC50 is greater than 7.00.

`O=C(NCCCNc1nc(Nc2cc(F)cc(F)c2)ncc1C1CC1)C1CCC1` [Example 72, Cyclobutanecarboxylic acid {3-[5-cyclopropyl-2-(3,5-difluoro-phenylamino)-pyrimidin-4-ylamino]-propyl}-amide. Hydrochloride salt]: the negative logarithm of the IC50 (pIC50) is greater than 7.00.

With `O=C(NCCCNc1nc(Nc2ccc3nccnc3c2)ncc1C1CC1)c1cccs1` [Example 56, Thiophene-2-carboxylic acid {3-[5-cyclopropyl-2-(quinoxalin-6-ylamino)-pyrimidin-4-ylamino]-propyl}-amide], the pIC50 was 6.00 to 7.00.

As to `O=C(NCCCNc1nc(Nc2ccc3ncsc3c2)ncc1C1CC1)C1CCC1` [Example 40, Cyclobutanecarboxylic acid {3-[2-(benzothiazol-6-ylamino)-5-cyclopropyl-pyrimidin-4-ylamino]-propyl}-amide. Hydrochloride salt], the pIC50 was greater than 7.00.

`CN1CCN(CCCNc2nc(Nc3cccc(F)c3)ncc2C2CC2)C1=O` [Example 112, 1-{3-[5-Cyclopropyl-2-(3-fluoro-phenylamino)-pyrimidin-4-ylamino]-propyl}-3-methyl-imidazolidin-2-one]: the pIC50 was 6.00 to 7.00.

On to `O=C(NCc1ncc[nH]1)c1cccc(Nc2ncc(C3CC3)c(NCCCNC(=O)C3CCC3)n2)c1` [Example 89, 3-{4-[3-(Cyclobutanecarbonyl-amino)-propylamino]-5-cyclopropyl-pyrimidin-2-ylamino}-N-(1H-imidazol-2-ylmethyl)-benzamide. Hydrochloride salt], for which the pIC50 was greater than 7.00.

Regarding `CN(C)CCN(C)C(=O)c1cccc(Nc2ncc(C3CC3)c(NCCCNC(=O)C3CCC3)n2)c1` [Example 76, 3-{4-[3-(Cyclobutanecarbonyl-amino)-propylamino]-5-cyclopropyl-pyrimidin-2-ylamino}-N-(2-dimethylamino-ethyl)-N-methyl-benzamide], the pIC50 is greater than 7.00.

In the case of `O=C(NCCCNc1nc(Nc2cccc(F)c2)ncc1C1CC1)c1ccc(Cl)s1` [Example 21, 5-Chloro-thiophene-2-carboxylic acid {3-[5-cyclopropyl-2-(3-fluoro-phenylamino)-pyrimidin-4-ylamino]-propyl}-amide], the pIC50 is 6.00 to 7.00.

Take `Cc1ccccc1Nc1ncc(C2CC2)c(NCCCNC(=O)c2cccs2)n1` [Example 59, Thiophene-2-carboxylic acid [3-(5-cyclopropyl-2-o-tolylamino-pyrimidin-4-ylamino)-propyl]-amide]: the pIC50 was 5.00 to 6.00.

`O=C(NCCCNc1nc(Nc2ccc(S(=O)(=O)Nc3ncccn3)cc2)ncc1C1CC1)C1CCC1` [Example 163, Cyclobutanecarboxylic acid (3-{5-cyclopropyl-2-[4-(pyrimidin-2-ylsulfamoyl)-phenylamino]-pyrimidin-4-ylamino}-propyl)-amide]: the pIC50 is greater than 7.00.

For the molecule `O=C(NCCCNc1nc(Nc2cccc(F)c2)ncc1C1CC1)c1nc[nH]n1` [Example 9, 1H-1,2,4-Triazole-3-carboxylic acid {3-[5-cyclopropyl-2-(3-fluoro-phenylamino)-pyrimidin-4-ylamino]-propyl}-amide trifluoroacetic acid salt], the pIC50 was 6.00 to 7.00.

For `CN1Cc2cc(Nc3ncc(C4CC4)c(NCCCNC(=O)C4CCC4)n3)ccc2C1=O` [Example 167, Cyclobutanecarboxylic acid {3-[5-cyclopropyl-2-(2-methyl-1-oxo-2,3-dihydro-1H-isoindol-5-ylamino)-pyrimidin-4-ylamino]-propyl}-amide], the pIC50 is greater than 7.00.
